Test results: article PMC8987157, “Regioselective One-Pot Synthesis of Hydroxy-(S)-Equols Using Isoflavonoid Reductases and Monooxygenases and Evaluation of the Hydroxyequol Derivatives as Selective Estrogen Receptor Modulators and Antioxidants” (Frontiers in Bioengineering and Biotechnology, 2022)
pEC50: −log10 of the molar value. “And” between values parts separate entries of the source, which are not always exact repeats. Equal entries are not always repeated.

Key:
[1] = DPPH radical scavenging assay
Method: DPPH radical scavenging assay. In each well of polystyrene flat-bottom 96-well plates, 200 μL of solution containing 0.1 mM 2,2-diphenyl-1-(2,4,6-trinitrophenyl)hydrazin-1-yl (DPPH) radical, 50% (v/v) MeOH, 10% (v/v) DMSO, specific amount of compounds, and 1x concentration of phosphate buffered saline (PBS) was made. The PBS was prepared with 4x concentration of its original recipe with pH 7.4 and diluted by adding 50 μL in the solution mixture. The plates were incubated at 37°C for 30 min. The OD520 and OD495 of incubated plates were measured. The radical scavenging activity was defined as (OD520/OD495)DMSO- OD520/OD495. (OD520/OD495)DMSO is the OD520/OD495 of the DMSO control without antioxidative compounds. The radical scavenging activity values were normalized with the value of the positive control (1 mM of L-ascorbic acid). The data were triplicated, and the average values were regressed using the following formula.
where E/E 0 is the normalized radical scavenging activity, [L] is the concentration of compounds, and n is the Hill’s coefficient, and EC50 is the value of effective concentration at E/E 0 = 0.5.

ERβ LBD = target: T1, ERβ LBD (Homo sapiens, UniProt Q92731); experiment: ERβ-SRC1 agonistic yeast two hybrid (Y2H) assay, β-galactosidase activity; format: cell-based; details: for β/α ratio of EC50^-1: ERβ over ERα, Y2H; for pEC50: Y2H ERβ-SRC1, yeast L40, triplicates
T1 construct: LexA DBD-ERβ LBD (264–510); expressed in transfected cells; host or cells: Saccharomyces cerevisiae L40
T1 sequence (Q92731 264-510, one chain of several): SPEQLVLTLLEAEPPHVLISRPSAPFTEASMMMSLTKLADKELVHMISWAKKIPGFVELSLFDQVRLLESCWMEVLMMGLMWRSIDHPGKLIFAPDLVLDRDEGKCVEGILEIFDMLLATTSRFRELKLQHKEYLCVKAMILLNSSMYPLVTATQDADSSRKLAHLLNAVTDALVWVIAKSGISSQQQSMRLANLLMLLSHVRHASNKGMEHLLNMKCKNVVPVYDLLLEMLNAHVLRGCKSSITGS
Excerpt: (§1) Microbial strains. Cloning information and used primers for the construction of EcHpaBC and MaFMO encoded vectors are listed in Supplementary Table S1. […] Three EcHpaB mutants were made by site-directed mutagenesis using the listed overlapping primer-containing intended mutations. […] These sets of two vectors (pBTM116:LexA DBD-ERα LBD & pVP16:VP16 AD-(Gly4Ser)2-tSRC1 or pBTM116:LexA DBD-ERβ LBD & pVP16:VP16 AD-(Gly4Ser)2-tSRC1) were transformed in the L40 strains.
(§2) Yeast-two-hybrid assay. The transformed L40 strains were grown in synthetic leucine and tryptophan drop-out (SD L^−W^-) media. […] These plates were incubated at 30 °C with shaking of 1,000 rpm for overnight (∼20 h). After the incubation, the cultures were centrifuged, and the supernatants were discarded. In each well, 500 μL Z-buffer (60 mM Na2HPO4, 40 mM NaH2PO4, 10 mM KCl, and 1 mM MgSO4; pH 7.0) with 1 mM dithiothreitol (DTT) was filled and resuspended. 50 μL of each suspension was taken for OD600 measurement before chloroform treatment. (This value was not used for the measurement of the Miller unit.) Chloroform 50 μL was added to each 450 μL of the suspension, and the solution mixture was shaked for 1 min at 1,000 rpm to disrupt the cell membrane. The disrupted suspensions were kept still at room temperature for 2 min, and 50 μL aqueous aliquots were taken. In polystyrene flat-bottomed 96-well plate, each well was charged with 100 μL of Z-buffer with 1 mM DTT, 50 μL aqueous aliquot, and 50 μL of Z-buffer with 1 mM DTT and 0.4 mg/ml ortho-nitrophenyl-β-galactoside (ONPG). Initially, OD600 of all the wells was measured, and subsequently, OD420 of the same wells was measured for 30 min with a minute interval. […] E/E0=ε/1+10^n(log(EC50)−log([L])),
(§3) where E/E 0 is the normalized Miller unit and ε is the maximum response relative to E2 (ε(E2) = 1). [L] is the concentration of ligands and n is the Hill’s coefficient.

ERα LBD = target: T2, ERα LBD (Homo sapiens, UniProt P03372); experiment: ERα-SRC1 agonistic yeast two hybrid (Y2H) assay, β-galactosidase activity; format: cell-based; details: for pEC50: Y2H ERα-SRC1, yeast L40, triplicates
T2 construct: expressed in transfected cells; host or cells: Saccharomyces cerevisiae L40
T2 sequence (P03372 312-595): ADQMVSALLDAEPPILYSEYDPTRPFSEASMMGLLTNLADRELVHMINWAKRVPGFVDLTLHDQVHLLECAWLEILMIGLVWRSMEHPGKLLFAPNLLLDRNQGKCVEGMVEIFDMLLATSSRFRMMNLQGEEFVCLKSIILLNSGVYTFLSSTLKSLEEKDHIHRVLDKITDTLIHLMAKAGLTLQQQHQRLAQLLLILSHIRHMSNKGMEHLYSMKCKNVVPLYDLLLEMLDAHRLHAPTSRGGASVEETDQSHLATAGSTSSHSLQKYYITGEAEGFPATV
T2 sequence (Q15788 613-773 partner limits assumed): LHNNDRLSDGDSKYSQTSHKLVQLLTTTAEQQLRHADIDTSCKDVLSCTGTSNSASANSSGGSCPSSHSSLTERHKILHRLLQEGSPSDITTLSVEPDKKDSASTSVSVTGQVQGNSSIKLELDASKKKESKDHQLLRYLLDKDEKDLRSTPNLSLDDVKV
Excerpt: as §1, §2, §3

ERα = system: ERα; parameters: method as in Lee et al., 2017; details: ref Lee et al., 2017; cited from earlier work

Row | fold higher EC50 than (S)-equol (ERβ LBD; ERβ) | β/α ratio of EC50^-1 (ERβ LBD) | pEC50 (ERβ LBD) | fold higher EC50 than (S)-equol (ERα LBD; ERα) | pEC50 (ERα LBD) | response in Y2H agonist assay (ERβ LBD; ERβ, concentrations in the range of 10^–8∼10^–3 M) | response in Y2H agonist assay (ERα LBD; ERα, concentrations in the range of 10^–8∼10^–3 M) | lower β/α ratio response than that of 17β-estradiol (ERβ LBD) [%] | weaker estrogenic activity than E2 (ERβ LBD; ERβ) | weaker estrogenic activity than E2 (ERα LBD; ERα) | SMILES | antioxidative activity higher than 3′HD [1] | binding affinity ERα versus ERβ (ERα)
1 | 30∼200 fold | 1.15 | 4.00 to 5.00 and 4.75 | 30∼200 fold | 4.00 to 5.00 and 4.69 | – | – | – | – | – | Oc1ccc2c(c1)OC[C@H](c1ccc(O)c(O)c1)C2 [3'-hydroxy-(S)-equol, 3′-hydroxy-(S)-equol] | more than 40% | –
2 | – | – | – | – | – | did not show any response | did not show any response | – | – | – | Oc1ccc([C@H]2COc3cc(O)cc(O)c3C2)cc1 [5-hydroxy-(S)-equol] | – | higher binding affinity to ERα than ERβ
3 | 30∼200 fold | 1.00 | 4.00 to 5.00 and 3.99 | 30∼200 fold | 4.00 to 5.00 and 3.99 | – | – | 10 | – | – | Oc1ccc([C@H]2COc3cc(O)c(O)cc3C2)cc1 [6-hydroxy-(S)-equol] | – | –
4 | – | 1.31 | 6.30 | – | 6.18 | – | – | – | about 3 orders of magnitude | about 3 orders of magnitude | Oc1ccc([C@H]2COc3cc(O)ccc3C2)cc1 [(S)-equol] | – | –
